Assay: xn = mol fraction of the nth substance listed

CC(=O)[O-].CCCCCC[n+]1ccccc1 + O
electrical conductivity [S/m], 101 kPa
Conditions	x1 = 0.8711	x1 = 0.8907	x1 = 0.9081	x1 = 0.9293	x1 = 0.9699	x2 = 0.007385
293.15 K	0.00457	0.00421	0.00389	0.00337	0.00259	0.00201
298.15 K	0.0076	0.00693	0.00609	0.00551	0.00409	0.00282
303.15 K	0.0127	0.0115	0.0102	0.009	0.00656	0.005
308.15 K	0.0171	0.0156	0.0139	0.0122	0.00887	0.00746
313.15 K	0.0256	0.0229	0.0209	0.0181	0.014	0.0112
318.15 K	0.0371	0.0331	0.03	0.0264	0.019	0.0155
323.15 K	0.0501	0.0451	0.041	0.0365	0.0271	0.0224
328.15 K	0.067	0.0608	0.0551	0.0496	0.0372	0.0318
333.15 K	0.091	0.081	0.0727	0.0639	0.0487	0.0414
338.15 K	0.124	0.111	0.101	0.0894	0.0694	0.0592
343.15 K	0.163	0.148	0.135	0.119	0.0952	0.0819

CCCn1cc[n+](C)c1C.O=[N+]([O-])c1cn[n-]c1 + COCCOCCOCCOCCOC
100 kPa
Conditions	viscosity [mPa·s]
278.15 K, x2 = 0.399	252
283.15 K, x2 = 0.1	1670
283.15 K, x2 = 0.201	743
283.15 K, x2 = 0.499	88
288.15 K, x2 = 0.1	929
288.15 K, x2 = 0.201	449
298.15 K, x2 = 0.399	62
313.15 K, x2 = 0.201	76

CS(C)=O + COCCOCCn1cc[n+](CCC#N)c1.O=S(=O)([N-]S(=O)(=O)C(F)(F)F)C(F)(F)F
101.3 kPa, x2 = 0
Conditions	electrical conductivity [S/m]
293.15 K	0.000587
303.15 K	0.000881
313.15 K	0.00118
323.15 K	0.00148

C[N+](C)(C)CCO.NCC(=O)[O-] + O
100 kPa
Conditions	viscosity [mPa·s]
298.15 K, x1 = 1	501
303.15 K, x1 = 0.6966	202
308.15 K, x1 = 0.1	4.34
308.15 K, x1 = 0.3996	60.2
313.15 K, x1 = 0.3996	49
313.15 K, x1 = 0.5004	71.1
318.15 K, x1 = 0.1	3.35
318.15 K, x1 = 0.3	25.63
318.15 K, x1 = 0.3996	40.89
318.15 K, x1 = 0.5004	56
318.15 K, x1 = 1	154.5

CS(C)=O + CCC[N+]1(C)CCCC1.O=S(=O)([N-]S(=O)(=O)C(F)(F)F)C(F)(F)F
101 kPa, x2 = 0
Conditions	viscosity [mPa·s]
298.15 K	2.118
308.15 K	1.758
318.15 K	1.489
328.15 K	1.28
338.15 K	1.116
348.15 K	0.983
358.15 K	0.874

CCCC[n+]1ccn(C)c1.[Br-] + C[NH2+]CCC=C1c2ccccc2CCc2ccccc21.[Cl-] + O
viscosity [mPa·s], 100 kPa
Conditions	288.15 K	298.15 K	308.15 K	318.15 K
x2 = 0, x1 = 0.0001802	1.149	0.916	0.751	0.634
x2 = 0, x1 = 0.0007203	1.153	–	–	0.64
x2 = 0, x1 = 0.00126	1.159	0.93	0.763	0.646

Reference: the CheMixHub ionic liquid set
